Experimental data as given in patent publication US20250268980A1, “AN ANTICANCER THERAPY TARGETING RAS AND OTHER ONCOGENIC SIGNALS BY INHIBITION OF DYNAMIC BLEBBING AND/OR SEPTINS” (THE BOARD OF REGENTS OF THE UNIVERSITY OF TEXAS SYSTEM, priority 2022, published 2025).

What was measured:
[1] = system: MV3 melanoma cells; experiment: 3D cell morphology analysis (blebs, surface curvature) of MV3 cells; assay type: cell-based, human
Method: Cells Embedded in 3D Collagen.
3D Light-Sheet Imaging. […] All images were saved in the OME-TIFF format.
3D Cell Image Analysis. Cell morphology and septin localization were analyzed principally via u-shape3D similar to the protocol described in Driscoll et al. Nature Methods. 16, 1037-1044 (2019), the disclosure of which is incorporated herein in its entirety. Briefly, 3D images were first deconvolved using either a Richardson-Lucy or Wiener algorithm with an experimentally measured point spread function. Cells were next segmented from the image background using u-shape3D's ‘twoLevel’ mode, which combines a straightforward Otsu threshold of the image to detect the outer cell surface with a blurred version of the image to segment the inside of the cell. The volume segmented from the blurred image was morphologically eroded to ensure the fidelity of the overall segmentation. Cell surfaces were then represented as triangle meshes, and the mean surface curvature at every triangle was calculated according to methods described in Driscoll et al. Nature Methods. 16, 1037-1044 (2019) and Elliott et al., Nat. […] To remove irregularities, the curvature was next smoothed in real space with a median filter of 1 pixel to remove infinities and then slightly diffused along the mesh. Septin and NRAS localization was measured from fluorescence images by extending a sphere of either 1 μm (for septins) or 2 μm (for NRAS) about each mesh triangle and mapping to the triangle the average intensity both within that sphere and the cell. Image intensity was not depth normalized prior to analysis, but was instead measured from the raw, undeconvolved image. […]
Blebs were also detected according to methods similar to that described in Driscoll et al. Nature Methods. […] Distances from bleb edges were then calculated as the geodesic distance from each triangle to the nearest bleb edge. […] Bleb and septin directional correlations were calculated using spherical statistics, in particular by fitting spherical normal distributions to distributions defined at each mesh triangle.

[2] = system: M498 cells; experiment: Detached/adhered viability assay, ethidium homodimer staining, M498; assay type: cell-based, human; details: for cell death: 24 hours of WGA
Method: Bleb formation was inhibited using wheat germ agglutinin (WGA), a lectin that reduces plasma membrane deformability by crosslinking components of the glycocalyx. […] To investigate putative bleb function as a driver of anchorage-independent cell survival assays were designed that consistently minimized both cell-substrate and cell-cell attachment over a period of 24 hours. This was accomplished by seeding cells at very low density (approx. 250 or 100 cells/ml) in non-adherent culture dishes under constant gentle agitation. For controls, cells were grown at identical concentrations in adherent variants of the same culture dishes. Together, this generated pairs of ‘detached’ and ‘adhered’ cell populations in paired same-day experiments.
Detached/Adhered Cell Culture. […] Drug treatments, solvent-only controls, or CellEvent caspase activity sensor were added to suspensions if appropriate to the experiment, and then immediately transferred to both an uncoated (for detached cells) and ibiTreated (for adhered cells) 8-well ibidi u-slide (ibidi cat #80821 and 80826) at 200 μl/well. Both slides were stored at 37° C. and 5% CO2 for either 24 hours (hrs) for viability assays, 3 hrs for ERK activity assays or 4 hours for caspase activation assays. Uncoated slides (detached) were nutated at 20 rpm during this time. […]
Viability, ERK Activity, and Caspase ActivityCell Counting Assays. Viability, ERK activity, and caspase activity assays were analyzed using live-cell fluorescent and phase-contrast microscopy, performed on a Nikon Ti microscope equipped with an environmental chamber held at 37° C. and 5% CO2 at 20× magnification. […] Live and dead cells (as identified by significant cellular ethidium signal) were counted using the Cell Counter ImageJ plugin. For ERK activity assays, live cells carrying ERK-nKTR-GFP and H2B-mCherry were imaged after 3 hours of experimental conditions and high/low ERK activity cells were counted with Cell Counter ImageJ plugin. […] Caspase positive and negative cells (as identified by significant cellular CellEvent signal) were counted using the Cell Counter ImageJ plugin.

Compound | blebbiness ([1]; MV3, FCF treatment) | anoikis resistance (cell death adhered vs detached) ([2]; M498, 50 μM FCF, 24 hours) | bleb density (fraction of cell surface comprised of blebs) ([1]; MV3 cells, different concentrations of WGA, morphological motif analysis) | mean plasma membrane curvature above K=0.4 μm-1 ([1]; control vs WGA-treated MV3 cells) | cell death ([2]; adhered M498 cells) | cell death ([2]; detached M498 cells)
O=C(Nc1ccccc1)Nc1ccnc(Cl)c1 [FCF, forchlorfenuron] | without altering blebbiness | greatly disrupted anoikis resistance |  |  |  | 
wheat germ agglutinin [WGA] |  |  | dosage dependent inhibitor of bleb density | reduced | die upon WGA treatment | significantly more death
